One data set has as its target T1, human RARβ2 receptors (Homo sapiens, UniProt P10826).
T1 sequence (P10826 1-448 isoform P10826-2): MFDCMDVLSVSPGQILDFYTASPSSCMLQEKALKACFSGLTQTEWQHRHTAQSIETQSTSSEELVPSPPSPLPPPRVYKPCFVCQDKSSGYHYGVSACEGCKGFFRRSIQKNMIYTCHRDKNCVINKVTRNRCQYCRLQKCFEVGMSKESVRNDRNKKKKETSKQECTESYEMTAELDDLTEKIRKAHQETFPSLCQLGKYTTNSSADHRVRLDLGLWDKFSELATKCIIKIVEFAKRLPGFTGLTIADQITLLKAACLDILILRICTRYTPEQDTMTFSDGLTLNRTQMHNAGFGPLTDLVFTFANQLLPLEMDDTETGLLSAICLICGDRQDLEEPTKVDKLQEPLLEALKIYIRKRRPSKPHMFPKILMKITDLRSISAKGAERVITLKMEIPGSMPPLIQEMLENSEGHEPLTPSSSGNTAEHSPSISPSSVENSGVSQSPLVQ
The conditions noted are these: as described in Lund et al. (2005, J. Med. Chem., 48, 7517-7519); cited from earlier work.

The subject of data set [1] is ethanol-fed mice. Nature of the data set: Hepatic steatosis (histopathology, Oil Red O, hepatic triglycerides) in Lieber-DeCarli liquid ethanol diet model of early ALD. The class given is in vivo, mouse (male C57BL/6J). Particulars: EtOH-AC261 vs EtOH mice, 10 mg/kg/day, 3 weeks. From the text: (§1) Liquid Ethanol Diet. Male C57BL/6J mice (8-9-weeks-old) (n=30) were purchased from Jackson Laboratory. Animals were housed in standard cages with 2-mice per cage and fed a standard vivarium chow (rodent diet #2014, Harlan-Teklad, Madison, WI). After acclimation to liquid feeding, mice were switched to the Lieber-DeCarli-liquid alcohol diet for 3 weeks using the following groups: 1) Control diet-fed mice (aka Pair-fed (PF), n=6), 2) Pair-fed mice+RARβ2 specific agonist AC261066 (Tocris #4046), at 10 mg/kg/day [Pair-fed+AC261, (n=4)] (PF-AC), 3) Alcohol-treated (5% ethanol (EtOH) v/v plus vehicle [0.1% DMSO], n=10) (EtOH), and iv) 4) EtOH+AC261, [10 mg/kg/day], n=10)] (EtOH-AC).

Data set [2] deals with ethanol-fed mice. Nature of the data set: Plasma AST and ALT activity (liver injury markers) in liquid ethanol diet model. The class given is in vivo, mouse (male C57BL/6J). The conditions noted are these: EtOH-AC261 vs EtOH mice; 10 mg/kg/day, 3 weeks.
From the text: as §1

In a further data set the test system is ALDH1A1. The data set can be described thus: Hepatic ALDH1A1 protein by western blot and IHC in liquid ethanol diet model. The class given is in vivo, mouse (male C57BL/6J). The conditions noted are these: EtOH-AC vs EtOH mice.
From the text: as §1
(§2) AC261066 and ethanol modulate centrilobular protein expression of ALDH1A1, CYP2E1, and Oxidative Stress. ALDH1A1 is one of the rate-limiting enzymes in the oxidation of retinaldehyde to RA and a key contributor to hepatic RA synthesis, as mice lacking ALDH1A1 show reduced hepatic levels of RA. […] Therefore, hepatic protein levels of ALDH1A1 were measured next, as it was the only ALDH1A isoform to increase in EtOH compared to PF mice. […] Therefore, given that high levels of ALDH1A1 were specifically detected only in zone 2-3, centrilobular regions, hepatic CYP2E1 protein levels were next measured by western blot and IHC, and by IHC, 4-HNE, as an indirect readout of oxidative stress. […]
In general terms: A western blot detects proteins with antibodies after separation by electrophoresis.

For another data set, the system named is CYP2E1. The data set can be described thus: Hepatic CYP2E1 protein by western blot and IHC in liquid ethanol diet model. The class given is in vivo, mouse (male C57BL/6J). Particulars: EtOH-AC261066 vs EtOH mice.
From the text: as §1, §2

The test system of a further data set is 4-HNE. The data set can be described thus: Hepatic 4-HNE IHC (indirect readout of oxidative stress) in liquid ethanol diet model. The class given is in vivo, mouse (male C57BL/6J). The conditions noted are these: EtOH-AC261 vs EtOH mice.
From the text: as §1, §2

In data set [3] the test system is genes involved in de novo lipogenesis and fatty acid β-oxidation. The data set can be described thus: RNA-seq of hepatic transcripts of lipid metabolism genes in liquid ethanol diet model. The class given is in vivo, mouse (male C57BL/6J).
From the text: as §1
The mechanism by which AC261066 functions in lipid metabolism, including de novo lipogenesis and fatty acid β-oxidation in the liver, was assessed.

The nature of data set [4]: Tolerability and general observations (food intake, body weight, blood alcohol, hepatic drug level, hepatotoxicity, fibrosis) in liquid ethanol diet study. The class given is in vivo, mouse (male C57BL/6J).
From the text: as §1

[5] abbreviates: 5% ETOH-fed mice with vs without AC261066.
[6] abbreviates: 5% ETOH-fed plus AC261066 vs ETOH-fed mice without AC261066.

SMILES strings stand for the structures.

As to `CCCCCCCCc1ccc(-c2ccc(C(=O)O)cc2)cc1` [AC55649], at human RARβ2 receptors, the “isoform selectivity of agonism at human RARβ2 receptors” value is on record as “highly isoform-selective agonists”.

For `CCCCOCCOc1nc(-c2ccc(C(=O)O)c(F)c2)sc1C` [AC261066], in the data set on ethanol-fed mice [1], the “reduction in Oil red O lipid-staining” value came out at 41% and the “reduction in hepatic triglycerides” value was found to be 35%. Further, in the data set with ethanol-fed mice [1] (5% EtOH diet), the “reduction in macrovesicular steatosis” value stood at 72% and the “reduction in microvesicular steatosis” value came to 82%. In the data set with ethanol-fed mice [2], the “reduction in plasma activity of ALT” value is approximately 30% and the “reduction in plasma activity of AST” value was approximately 30%. The “reduction in zone 2-3, centrilobular ALDH1A1 protein immunoreactivity” value in the data set on ALDH1A1 (IHC) was 40%. Also, the “reduction in ALDH1A1 total protein” value with ALDH1A1 (western blot) turned out to be 32%. The “reduction in zone 2-3 centrilobular CYP2E1 protein levels” value in the data set on CYP2E1 (IHC) is approximately 39%. Further, in the data set on CYP2E1 (total protein), the “reduction in hepatic CYP2E1 protein levels” value is “approximately 31%”. Besides, in the data set with 4-HNE, the “decrease in hepatic levels of 4-HNE” value is reported as 36% and the “decrease in hepatic levels of 4-HNE (first value)” value came out at 33%. Also, in data set [3] (setting [5]), the “EtOH-induced increase in hepatic Fasn mRNA level” value is listed as “eliminated or attenuated”, the “EtOH-induced increase in hepatic Mogat1 mRNA level” value is on record as “eliminated or attenuated” and the “EtOH-induced increase in hepatic Pparg mRNA level” value is “eliminated or attenuated”. Moreover, in data set [3] (setting [6]), the “hepatic CPT1-α transcripts” value is “increased” and the “hepatic Ppara transcripts” value was “increased”. In addition, in data set [4] (PF+AC261 mice (pair-fed, no ethanol), 10 mg/kg/day, 3 weeks), the “changes to hepatic steatosis, triglyceride levels, fibrosis, or liver injury” value is on record as “No evidence was found of changes”. Also, the “daily food intake and body weights” value in data set [4] (all groups, entire length of the study) was “no group differences”. The hepatoxicity or fibrosis entry in data set [4] (concomitant administration of AC261 with EtOH, 3 weeks) is given as “no evidence”. The “effect of EtOH on hepatic AC261 levels” value in data set [4] (concomitant administration with EtOH, 3 weeks) is “did not adversely impact”. Further, the “isoform selectivity of agonism at human RARβ2 receptors” value at human RARβ2 receptors is “highly isoform-selective agonists”.
